Measured values: the supplement of paper PMC10307832

Experiments:
[1] = compound: CC1=C(C(=NN1)C)CC2=C(C3=C(S2)N(C(=O)N(C3=O)C)CC(C)C)C(=O)N4C[C@@H](CO4)O + CC(=O)Nc1cccc(-n2c(=O)n(C3CC3)c(=O)c3c(Nc4ccc(I)cc4F)n(C)c(=O)c(C)c32)c1 [Trametinib] (partner 0.02 µM); experiment: relative viability (nuclei count vs DMSO), 5 days (fraction); higher = more cells survive
In short: (§1)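 Relative viability was taken as the ratio of nuclei in treated wells to nuclei in vehicle wells. Lung cancer cell lines in 1536-well plates received compounds by pin tool one day after seeding, either one drug alone or a fixed anchor-drug dose plus five library-drug doses (not always all listed) in √10 steps. Nuclei were counted on 4× images after 5 days of treatment, and values are medians of duplicate plates.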

IDH-C35 + Dasatinib = compound: Cc1ccccc1C(C(=O)NC1CCCCC1)N(C(=O)Cn1ccnc1C)c1cccc(F)c1 [IDH-C35] + Cc1nc(Nc2ncc(C(=O)Nc3c(C)cccc3Cl)s2)cc(N2CCN(CCO)CC2)n1 [Dasatinib] (partner 0.075 µM); experiment: as above
In short: as §1

HCC-44
relative viability ([1]; first compound 0.0025 µM): 1.11 | relative viability ([1]; first compound 0.007906 µM): 1.08 | relative viability ([1]; first compound 0.025 µM): 1.1 | relative viability ([1]; first compound 0.07906 µM): 1.05 | relative viability ([1]; first compound 0.25 µM): 1.05

HCC-827
relative viability ([1]; first compound 0.0025 µM): 0.556 | relative viability ([1]; first compound 0.007906 µM): 0.542 | relative viability ([1]; first compound 0.025 µM): 0.529 | relative viability ([1]; first compound 0.07906 µM): 0.51 | relative viability ([1]; first compound 0.25 µM): 0.521 | relative viability (IDH-C35 + Dasatinib; first compound 0.08 µM): 0.328 | relative viability (IDH-C35 + Dasatinib; first compound 0.253 µM): 0.263 | relative viability (IDH-C35 + Dasatinib; first compound 0.8 µM): 0.29 | relative viability (IDH-C35 + Dasatinib; first compound 2.53 µM): 0.32 | relative viability (IDH-C35 + Dasatinib; first compound 8 µM): 0.382

NCI-H1623
relative viability (IDH-C35 + Dasatinib; first compound 0.08 µM): 0.475 | relative viability (IDH-C35 + Dasatinib; first compound 0.253 µM): 0.504 | relative viability (IDH-C35 + Dasatinib; first compound 0.8 µM): 0.534 | relative viability (IDH-C35 + Dasatinib; first compound 2.53 µM): 0.535 | relative viability (IDH-C35 + Dasatinib; first compound 8 µM): 0.474

NCI-H2347
relative viability ([1]; first compound 0.0025 µM): 0.269 | relative viability ([1]; first compound 0.007906 µM): 0.313 | relative viability ([1]; first compound 0.025 µM): 0.301 | relative viability ([1]; first compound 0.07906 µM): 0.274 | relative viability ([1]; first compound 0.25 µM): 0.265 | relative viability (IDH-C35 + Dasatinib; first compound 0.08 µM): 0.337 | relative viability (IDH-C35 + Dasatinib; first compound 0.253 µM): 0.3 | relative viability (IDH-C35 + Dasatinib; first compound 0.8 µM): 0.243 | relative viability (IDH-C35 + Dasatinib; first compound 2.53 µM): 0.343 | relative viability (IDH-C35 + Dasatinib; first compound 8 µM): 0.282

PC-14
relative viability ([1]; first compound 0.0025 µM): 0.795 | relative viability ([1]; first compound 0.007906 µM): 0.839 | relative viability ([1]; first compound 0.025 µM): 0.784 | relative viability ([1]; first compound 0.07906 µM): 0.917 | relative viability ([1]; first compound 0.25 µM): 0.929 | relative viability (IDH-C35 + Dasatinib; first compound 0.08 µM): 0.302 | relative viability (IDH-C35 + Dasatinib; first compound 0.253 µM): 0.277 | relative viability (IDH-C35 + Dasatinib; first compound 0.8 µM): 0.271 | relative viability (IDH-C35 + Dasatinib; first compound 2.53 µM): 0.247 | relative viability (IDH-C35 + Dasatinib; first compound 8 µM): 0.221

NCI-H1651
relative viability ([1]; first compound 0.0025 µM): 0.865 | relative viability ([1]; first compound 0.007906 µM): 0.861 | relative viability ([1]; first compound 0.025 µM): 0.849 | relative viability ([1]; first compound 0.07906 µM): 0.798 | relative viability ([1]; first compound 0.25 µM): 0.819 | relative viability (IDH-C35 + Dasatinib; first compound 0.08 µM): 0.416 | relative viability (IDH-C35 + Dasatinib; first compound 0.253 µM): 0.398 | relative viability (IDH-C35 + Dasatinib; first compound 0.8 µM): 0.426 | relative viability (IDH-C35 + Dasatinib; first compound 2.53 µM): 0.404 | relative viability (IDH-C35 + Dasatinib; first compound 8 µM): 0.382

HARA
relative viability ([1]; first compound 0.0025 µM): 1.14 | relative viability ([1]; first compound 0.007906 µM): 0.991 | relative viability ([1]; first compound 0.025 µM): 0.759 | relative viability ([1]; first compound 0.07906 µM): 0.662 | relative viability ([1]; first compound 0.25 µM): 0.782 | relative viability (IDH-C35 + Dasatinib; first compound 0.08 µM): 0.298 | relative viability (IDH-C35 + Dasatinib; first compound 0.253 µM): 0.271 | relative viability (IDH-C35 + Dasatinib; first compound 0.8 µM): 0.294 | relative viability (IDH-C35 + Dasatinib; first compound 8 µM): 0.328

NCI-H1650
relative viability ([1]; first compound 0.0025 µM): 0.626 | relative viability ([1]; first compound 0.007906 µM): 0.687 | relative viability ([1]; first compound 0.025 µM): 0.759 | relative viability ([1]; first compound 0.07906 µM): 0.62 | relative viability ([1]; first compound 0.25 µM): 0.788 | relative viability (IDH-C35 + Dasatinib; first compound 0.08 µM): 0.328 | relative viability (IDH-C35 + Dasatinib; first compound 0.253 µM): 0.35 | relative viability (IDH-C35 + Dasatinib; first compound 0.8 µM): 0.328 | relative viability (IDH-C35 + Dasatinib; first compound 2.53 µM): 0.269 | relative viability (IDH-C35 + Dasatinib; first compound 8 µM): 0.304

NCI-H1395
relative viability ([1]; first compound 0.0025 µM): 1.07 | relative viability ([1]; first compound 0.007906 µM): 0.988 | relative viability ([1]; first compound 0.025 µM): 0.994 | relative viability ([1]; first compound 0.07906 µM): 1.04 | relative viability ([1]; first compound 0.25 µM): 1 | relative viability (IDH-C35 + Dasatinib; first compound 0.08 µM): 0.416 | relative viability (IDH-C35 + Dasatinib; first compound 0.253 µM): 0.376 | relative viability (IDH-C35 + Dasatinib; first compound 0.8 µM): 0.4 | relative viability (IDH-C35 + Dasatinib; first compound 2.53 µM): 0.41 | relative viability (IDH-C35 + Dasatinib; first compound 8 µM): 0.381

LU99A
relative viability ([1]; first compound 0.0025 µM): 0.522 | relative viability ([1]; first compound 0.007906 µM): 0.606 | relative viability ([1]; first compound 0.025 µM): 0.452 | relative viability ([1]; first compound 0.07906 µM): 0.57 | relative viability ([1]; first compound 0.25 µM): 0.532 | relative viability (IDH-C35 + Dasatinib; first compound 0.08 µM): 0.684 | relative viability (IDH-C35 + Dasatinib; first compound 0.253 µM): 0.552 | relative viability (IDH-C35 + Dasatinib; first compound 0.8 µM): 0.586 | relative viability (IDH-C35 + Dasatinib; first compound 2.53 µM): 0.639 | relative viability (IDH-C35 + Dasatinib; first compound 8 µM): 0.542

NCI-H1355
relative viability ([1]; first compound 0.0025 µM): 0.461 | relative viability ([1]; first compound 0.007906 µM): 0.423 | relative viability ([1]; first compound 0.025 µM): 0.472 | relative viability ([1]; first compound 0.07906 µM): 0.402 | relative viability ([1]; first compound 0.25 µM): 0.442 | relative viability (IDH-C35 + Dasatinib; first compound 0.08 µM): 0.76 | relative viability (IDH-C35 + Dasatinib; first compound 0.253 µM): 0.727 | relative viability (IDH-C35 + Dasatinib; first compound 0.8 µM): 0.667 | relative viability (IDH-C35 + Dasatinib; first compound 2.53 µM): 0.651 | relative viability (IDH-C35 + Dasatinib; first compound 8 µM): 0.742

HCC-78
relative viability ([1]; first compound 0.0025 µM): 0.796 | relative viability ([1]; first compound 0.007906 µM): 0.77 | relative viability ([1]; first compound 0.025 µM): 0.775 | relative viability ([1]; first compound 0.07906 µM): 0.663 | relative viability ([1]; first compound 0.25 µM): 0.811 | relative viability (IDH-C35 + Dasatinib; first compound 0.08 µM): 0.361 | relative viability (IDH-C35 + Dasatinib; first compound 0.253 µM): 0.315 | relative viability (IDH-C35 + Dasatinib; first compound 0.8 µM): 0.496 | relative viability (IDH-C35 + Dasatinib; first compound 2.53 µM): 0.325 | relative viability (IDH-C35 + Dasatinib; first compound 8 µM): 0.435

NCI-H1563
relative viability (IDH-C35 + Dasatinib; first compound 0.08 µM): 0.455 | relative viability (IDH-C35 + Dasatinib; first compound 0.253 µM): 0.472 | relative viability (IDH-C35 + Dasatinib; first compound 0.8 µM): 0.446 | relative viability (IDH-C35 + Dasatinib; first compound 2.53 µM): 0.487 | relative viability (IDH-C35 + Dasatinib; first compound 8 µM): 0.465

HCC-15
relative viability ([1]; first compound 0.0025 µM): 0.411 | relative viability ([1]; first compound 0.007906 µM): 0.365 | relative viability ([1]; first compound 0.025 µM): 0.378 | relative viability ([1]; first compound 0.07906 µM): 0.407 | relative viability ([1]; first compound 0.25 µM): 0.415 | relative viability (IDH-C35 + Dasatinib; first compound 0.08 µM): 0.542 | relative viability (IDH-C35 + Dasatinib; first compound 0.253 µM): 0.639 | relative viability (IDH-C35 + Dasatinib; first compound 0.8 µM): 0.599 | relative viability (IDH-C35 + Dasatinib; first compound 8 µM): 0.59

EKVX
relative viability ([1]; first compound 0.0025 µM): 0.397 | relative viability ([1]; first compound 0.007906 µM): 0.339 | relative viability ([1]; first compound 0.025 µM): 0.353 | relative viability ([1]; first compound 0.07906 µM): 0.246 | relative viability ([1]; first compound 0.25 µM): 0.372 | relative viability (IDH-C35 + Dasatinib; first compound 0.08 µM): 0.568 | relative viability (IDH-C35 + Dasatinib; first compound 0.253 µM): 0.53 | relative viability (IDH-C35 + Dasatinib; first compound 0.8 µM): 0.57 | relative viability (IDH-C35 + Dasatinib; first compound 2.53 µM): 0.494 | relative viability (IDH-C35 + Dasatinib; first compound 8 µM): 0.61

NCI-H2087
relative viability ([1]; first compound 0.0025 µM): 0.248 | relative viability ([1]; first compound 0.007906 µM): 0.202 | relative viability ([1]; first compound 0.025 µM): 0.213 | relative viability ([1]; first compound 0.07906 µM): 0.201 | relative viability ([1]; first compound 0.25 µM): 0.208 | relative viability (IDH-C35 + Dasatinib; first compound 0.08 µM): 0.944 | relative viability (IDH-C35 + Dasatinib; first compound 0.253 µM): 0.995 | relative viability (IDH-C35 + Dasatinib; first compound 0.8 µM): 0.9 | relative viability (IDH-C35 + Dasatinib; first compound 8 µM): 0.814

LK-2
relative viability ([1]; first compound 0.0025 µM): 0.703 | relative viability ([1]; first compound 0.007906 µM): 0.952 | relative viability ([1]; first compound 0.025 µM): 0.651 | relative viability ([1]; first compound 0.07906 µM): 0.613 | relative viability ([1]; first compound 0.25 µM): 0.61 | relative viability (IDH-C35 + Dasatinib; first compound 0.08 µM): 0.243 | relative viability (IDH-C35 + Dasatinib; first compound 0.253 µM): 0.295 | relative viability (IDH-C35 + Dasatinib; first compound 0.8 µM): 0.27 | relative viability (IDH-C35 + Dasatinib; first compound 2.53 µM): 0.299 | relative viability (IDH-C35 + Dasatinib; first compound 8 µM): 0.335

NCI-H1437
relative viability ([1]; first compound 0.0025 µM): 0.617 | relative viability ([1]; first compound 0.007906 µM): 0.675 | relative viability ([1]; first compound 0.025 µM): 0.543 | relative viability ([1]; first compound 0.07906 µM): 0.563 | relative viability ([1]; first compound 0.25 µM): 0.511 | relative viability (IDH-C35 + Dasatinib; first compound 0.08 µM): 0.442 | relative viability (IDH-C35 + Dasatinib; first compound 0.253 µM): 0.448 | relative viability (IDH-C35 + Dasatinib; first compound 0.8 µM): 0.432 | relative viability (IDH-C35 + Dasatinib; first compound 2.53 µM): 0.314 | relative viability (IDH-C35 + Dasatinib; first compound 8 µM): 0.308
